Columns and labels:
[1] = test system: collagen 1 mRNA; test: Collagen mRNA in fibroblasts by RT-PCR; type: cell-based, human; settings: fibroblast cell cultures treated 72 hours
Excerpt: (§1) The presently claimed and disclosed inventive concept(s) further contemplates use of various DHE, IE and EV compositions and salts, esters, ethers, and derivatives thereof to mitigate the effects of aging on the skin. For all aging studies, normal human fibroblast cell cultures were used. These cells normally produce collagen, elastin and hyaluronic acid. As the skin ages, the fibroblasts in the dermis lose their ability to produce these three key components of skin, and the skin consequently loses elasticity, thickness and smooth texture. In addition, as fibroblasts age, they increase the expression of certain enzymes that destroy collagen and elastin. There are about 13 of these enzymes, collectively referred to as MMPs (matrix metalloproteinases). One of the principal MMPs, MMP-1, is responsible for collagen degradation. […] Fibroblast cell cultures were treated with either IE, DHE or EV for 72 hours at which time the amount of collagen mRNA present in the cells was determined.

[2] = test system: elastin mRNA; test: Elastin mRNA in human dermal fibroblasts by RT-PCR; type: cell-based; settings: 72 hours
Excerpt: as §1, with “In addition, as fibroblasts age, they increase the expression of certain enzymes that destroy collagen and elastin.” left out, “The image is from an electrophoresis gel of DNA amplified by PCR from fibroblast mRNA. This gel was analyzed and” for “Fibroblast cell cultures were treated with either IE, DHE or EV for 72 hours at which time”, “density” for “amount”, “each band quantified by image analysis software.” for “collagen mRNA present in the cells was determined.”

[3] = test system: HAS-2 (Hyaluronic acid synthase-2); test: HAS-2 mRNA in fibroblasts by RT-PCR; type: cell-based, human; settings: 72 hours
Excerpt: (§2) The presently claimed and disclosed inventive concept(s) further contemplates use of various DHE, IE and EV compositions and salts, esters, ethers, and derivatives thereof to mitigate the effects of aging on the skin. For all aging studies, normal human fibroblast cell cultures were used. These cells normally produce collagen, elastin and hyaluronic acid. As the skin ages, the fibroblasts in the dermis lose their ability to produce these three key components of skin, and the skin consequently loses elasticity, thickness and smooth texture. In addition, as fibroblasts age, they increase the expression of certain enzymes that destroy collagen and elastin. There are about 13 of these enzymes, collectively referred to as MMPs (matrix metalloproteinases). One of the principal MMPs, MMP-1, is responsible for collagen degradation. For experiments herein to determine the effects of DHE, IE and EV on collagen, elastin and hyaluronic acid, fibroblasts were treated with the compounds for 72 hours, mRNA was then isolated, and analyzed for abundance by RT-PCR (Reverse transcriptase-Polymerase Chain Reaction).
DHE, IE and EV, are also shown herein to stimulate mRNA for HAS-2. HAS-2 (Hyaluronic acid synthase-2) is the enzyme that manufactures hyaluronic acid (HA) in the skin. HA is a glycosaminoglycan important for maintaining moisture and suppleness in the skin. […] As the skin ages, the production of HA decreases and this causes the skin to sag and become thin.

[4] = test system: TIMP-1; test: TIMP-1 mRNA in fibroblasts by PCR; type: cell-based, human
Excerpt: as §2
Fibroblasts in the skin not only produce enzymes (MMPs) that destroy the skin matrix but they also produce proteins (Tissue Inhibitors of Metalloproteinases, i.e., TIMPS) that inhibit these enzymes. There are several TIMPs, but one that is most important for inhibiting MMPs is TIMP-1. […] Shown in FIG. 11 is PCR data showing the up-regulation of TIMP-1 mRNA by these compounds.

[5] = test system: MMP-1, MMP-3, MMP-8, MMP-9 MMP-10 and MMP-13; test: MMP protein abundance in human dermal fibroblasts (protein array blotting); type: cell-based
Excerpt: As mentioned above, as fibroblasts age they increase their production of MMP enzymes that destroy collagen and elastin, particularly collagenase, MMP-1. We utilized a protein array blotting technique to determine the effect of DHE, IE and EV on the protein abundance of these enzymes. As shown below, EV is able to reduce the level of several MMPs in human dermal fibroblasts, including MMP-1, MMP-3, MMP-8, MMP-9 MMP-10 and MMP-13 (FIG. 12). This remarkable effect makes this compound an ideal addition to an anti-aging product since MMP levels in aging skin are quite high.

[6] = type: physicochemical; settings: water-oil emulsion
Procedure: This surprising and unexpected finding meant that it was necessary to identify a carrier/vehicle system that would accommodate EV in a soluble form and at the same time maintain its chemical stability (defined herein as at least 95% of the ethyl vanillin remaining chemically intact for at least 3 months). In one formulation contemplated herein, EV is dissolved in caprylic/capric triglyceride or other fatty acid triglyceride and then mixed into a silicone fluid wherein the silicone is the primary (greatest percentage) component of the formulation. The cosmetic silicone fluid used in this embodiment accepts the caprylic/capric triglyceride and allows the EV to remain in solution. […] Therefore, the presently claimed and disclosed inventive concept(s) contemplates formulations of EV in non-aqueous solutions, particularly comprising at least 20% to 25% to 30% to 35% to 40% to 45% to 50%, or up to 60%, 70%, 80% or 90% silicone thereby explicitly excluding water-in-oil, or oil-in-water, emulsions. Additionally, besides caprylic capric triglyceride, EV can be solubilized in jojoba oil, sunflower oil or squalane or any other solubilizer which is accepted by the silicones. […]

[7] = test system: human melanocyte cultures; test: Pigment in human melanocyte cultures; type: cell-based; settings: treated for 9 days
[8] = test system: tyrosinase; test: DOPA oxidase assay of cell extracts from treated human melanocytes; type: cell-based; settings: extracts of human melanocytes treated for 9 days
Procedure: Cell lysates were prepared from human melanocytes. The amount of tyrosinase in these cell lysates was determined by DOPA oxidase assay.
(§3) FIGS. 14-17 show the skin-lightening effects of topically-applied formulations of isoeugenol and its ester isoeugenol acetate (a.k.a. isoeugenyl acetate) in the treatment of hyperpigmented areas in the skin, wherein a reduction of melanin pigment in the skin is caused by the topical application of the formulations. In addition to blocking a post-tyrosinase step in melanin synthesis, IE and IE acetate can inhibit the expression of the tyrosinase protein in human melanocytes. […] If the cell extracts contain tyrosinase when an aliquot of extract is placed in a tube containing L-DOPA (a tyrosinase substrate) in buffer, the enzyme will convert the DOPA to melanin. The melanin will appear brownish-black in the assay tube. If IE or IE-acetate has inhibited tyrosinase synthesis in melanocytes, then the extracts from these cells will contain no enzyme and will not be able to produce melanin from DOPA in the assay tube. […] In this assay, cell extracts from human melanocytes either left untreated or treated with 200 micromolar of either IE or isoeugenol acetate for 9 days are run on SDS polyacrylamide electrophoresis gels to separate tyrosinase from other proteins. The tyrosinase in the gel is then blotted to a membrane and the tyrosinase detected by staining with a specific anti-tyrosinase antibody. The antibody-bound tyrosinase is then visualized by chemiluminescence.

[9] = test system: tyrosinase; test: Western immunoblot of tyrosinase abundance in human melanocyte extracts; type: cell-based
Excerpt: as §3

Structure (SMILES)	collagen production (collagen mRNA) [1]	elastin levels (elastin mRNA) [2]	mRNA for HAS-2 [3]	production of TIMP-1 (TIMP-1 mRNA) [4]	level of several MMPs (protein abundance) [5]	time within which EV significantly decomposes [6] [h]	pigment in human melanocyte cultures [7]	tyrosinase activity / melanin made from L-DOPA by cell extracts ([8]; listed as IE-acetate)	tyrosinase activity / melanin made from L-DOPA by cell extracts ([8]; listed as TH-213)	tyrosinase abundance (relative densitometric units) ([9]; human melanocyte extracts, 200 μM, 9 days, control approximately 7.25 RDU) [RDU]	tyrosinase present (western immunoblot) ([9]; human melanocytes treated with 200 micromolar for 9 days)
CCOc1cc(C=O)ccc1O [EV, ethyl vanillin]	stimulation	increase	stimulate	significantly stimulate	reduce	24 to 48					
CC=Cc1ccc(OC(C)=O)c(OC)c1 [isoeugenol acetate]							loss of pigment	very little melanin was made	absence of tyrosinase activity	~3.75	almost no detectable tyrosinase
